Experimental data: ChEMBL document CHEMBL4689842, “EUbOPEN Chemogenomics Library wave 1” (2021)

What was measured:
Fibroblast = experiment: Incucyte cell viability with human fibroblast; type: toxicity, cell-based; conditions: 10 µM, compound concentration 10 uM
U2OS = experiment: Incucyte cell viability with U2OS; type: toxicity, cell-based; conditions: human, 10 µM, compound concentration 10 uM
[1] = 0 h, replicate number 1, timepoint 0 hours
[2] = 6 h, replicate number 1, timepoint 6 hours
[3] = 12 h, replicate number 1, timepoint 12 hours
[4] = 18 h, replicate number 1, timepoint 18 hours
[5] = 24 h, replicate number 1, timepoint 24 hours
[6] = 0 h, replicate number 2, timepoint 0 hours
[7] = 6 h, replicate number 2, timepoint 6 hours
[8] = 12 h, replicate number 2, timepoint 12 hours
[9] = 18 h, replicate number 2, timepoint 18 hours
[10] = 24 h, replicate number 2, timepoint 24 hours
Also: filed as whole numbers so only -1 and 0 and 1 occur.

SMILES | Growth Rate (Fibroblast; [1]) | Growth Rate (Fibroblast; [2]) | Growth Rate (Fibroblast; [3]) | Growth Rate (Fibroblast; [4]) | Growth Rate (Fibroblast; [5]) | Growth Rate (U2OS; [2]) | Growth Rate (U2OS; [3]) | Growth Rate (U2OS; [4]) | Growth Rate (U2OS; [5]) | Growth Rate (U2OS; [1]) | Growth Rate (Fibroblast; [6]) | Growth Rate (Fibroblast; [7]) | Growth Rate (Fibroblast; [8]) | Growth Rate (U2OS; [7]) | Growth Rate (U2OS; [8]) | Growth Rate (U2OS; [9]) | Growth Rate (U2OS; [10]) | Growth Rate (Fibroblast; [10]) | Growth Rate (U2OS; [6]) | Growth Rate (Fibroblast; [9])
CC[C@H](C)C(=O)O[C@H]1C[C@@H](C)C=C2C=C[C@H](C)[C@H](CC[C@@H]3C[C@@H](O)CC(=O)O3)[C@H]21 [LOVASTATIN] | 0 | 1 | 1 | 1 | 1 | 0 | 0 | 0 | 0 | – | – | – | – | – | – | – | – | – | – | –
Cn1cc(C2=C(c3cn(C4CCN(Cc5ccccn5)CC4)c4ccccc34)C(=O)NC2=O)c2ccccc21 [ENZASTAURIN] | – | 0 | 0 | 0 | 0 | 0 | 0 | 0 | 0 | 0 | – | – | – | – | – | – | – | – | – | –
COc1ncc(-c2ccc3nccc(-c4ccnnc4)c3c2)cc1NS(=O)(=O)c1ccc(F)cc1F [OMIPALISIB] | – | 0 | 0 | 0 | 0 | 1 | 1 | 0 | 0 | 1 | 0 | – | – | – | – | – | – | – | – | –
Cc1csc2c(N[C@@H](C)CN3CCN(S(=O)(=O)c4ccc(Cl)c(Cl)c4)CC3)ncnc12 | 0 | – | 1 | 0 | 0 | – | 1 | 0 | 0 | 0 | – | 0 | 0 | 1 | 0 | – | – | – | – | –
Cn1cc(-c2[nH]c3cc(NC(=O)[C@H](N)C4CCCCC4)cc4c3c2C=NNC4=O)cn1 | 0 | – | – | 1 | 1 | 0 | 0 | 0 | 0 | 0 | – | – | – | 1 | 1 | – | – | – | – | –
CN1CCN(CCOc2cc(OC3CCOCC3)c3c(Nc4c(Cl)ccc5c4OCO5)ncnc3c2)CC1 [SARACATINIB] | 0 | – | – | 1 | 1 | 0 | 0 | 0 | 0 | – | – | – | – | – | 1 | 1 | 1 | – | – | –
CCOCCn1cc(C(=O)Nc2ccc(-n3nc(-c4cccnc4)cc3C(F)(F)F)cn2)ccc1=O [BI 1935] | – | 1 | 0 | 0 | 0 | 0 | 0 | 0 | 0 | 0 | 0 | – | 1 | – | – | – | 1 | 1 | – | –
CC(C)NCC(O)COc1ccc(CCOCC2CC2)cc1.Cl (stereo not given) [BETAXOLOL HYDROCHLORIDE] | 0 | 0 | 0 | 0 | 0 | – | – | 1 | 1 | 0 | – | – | – | – | – | – | – | – | – | –
Cc1sc2c(c1C)C(c1ccc(Cl)cc1)=N[C@@H](CC(=O)OC(C)(C)C)c1nnc(C)n1-2 | – | 0 | 0 | 0 | 0 | 0 | 1 | 0 | 0 | 0 | 0 | 1 | – | 1 | – | 1 | 1 | – | – | –
Cl.N#Cc1ccc2[nH]cc(CCCCN3CCN(c4ccc5oc(C(N)=O)cc5c4)CC3)c2c1 [VILAZODONE HYDROCHLORIDE] | 0 | – | 1 | 0 | 0 | – | 1 | 0 | 0 | 0 | – | 0 | 0 | 1 | 0 | – | – | – | – | –
C=CC(=O)Nc1cccc(C(=O)Nc2ccc(Nc3cc(-c4[nH]c(SC)nc4C)ccn3)cc2)c1 | 0 | – | 0 | 1 | 1 | 0 | 0 | 0 | 0 | 0 | – | 1 | 1 | – | – | – | – | – | 1 | –
CN1CCC[C@@H]1CCO[C@](C)(c1ccccc1)c1ccc(Cl)cc1.O=C(O)/C=C/C(=O)O [CLEMASTINE FUMARATE] | 0 | 1 | 0 | 0 | 0 | – | 0 | 0 | 0 | – | – | 0 | – | 0 | – | – | – | – | – | –
COc1cc(-n2cnc3cc(-c4ccc(Cl)cc4)sc3c2=O)ccc1OCCN1CCCC1 | – | 0 | 0 | 0 | 0 | 0 | 0 | 0 | 0 | 0 | – | – | – | – | – | – | – | – | – | –
NC(=O)Nc1cc(-c2cccc(F)c2)sc1C(=O)N[C@H]1CCCNC1 [AZD-7762] | – | 1 | 0 | 0 | 0 | 0 | 0 | 0 | 0 | 0 | 0 | – | – | – | – | – | – | – | – | 1
Cc1[nH]c(/C=C2\C(=O)Nc3ccc(S(=O)(=O)N(C)c4cccc(Cl)c4)cc32)c(C)c1C(=O)N1CCN(C)CC1 | 0 | – | – | 1 | 1 | – | 0 | 0 | 0 | – | – | – | – | – | 1 | – | – | – | 0 | –
O=C(NCCCC1CCCCC1)c1ccc(CNC(=O)c2cnn(-c3ccccc3)c2C(F)(F)F)cc1 [SR-321] | 1 | 1 | 1 | 1 | 1 | 1 | 1 | 1 | 1 | 0 | – | 0 | 0 | 0 | – | – | – | – | – | –
Cc1nc(-c2cn3c(n2)-c2ccc(-c4cnn(C(C)(C)C(N)=O)c4)cc2OCC3)n(C(C)C)n1 [TASELISIB] | 0 | 0 | 0 | 0 | 0 | 0 | 1 | 0 | 0 | 0 | 1 | – | – | – | – | 1 | – | – | – | –
Cc1c(-c2ccc(O)cc2)n(Cc2ccc(OCCN3CCCCCC3)cc2)c2ccc(O)cc12 [BAZEDOXIFENE] | 0 | 0 | 0 | 0 | 0 | – | 1 | 0 | 0 | – | – | – | – | – | – | 1 | – | – | 0 | –
CC(C)(O)CNc1ncc(-c2ccnc(Nc3ccnc(Cl)c3)n2)c(CC2CC2)n1 | – | 0 | 0 | 0 | 0 | 1 | 0 | 0 | 0 | 0 | 1 | 1 | – | – | – | 1 | 1 | – | – | –
